Assay results reported in patent US9822147B2, “Methods of treating ophthalmic diseases using NPR-B agonists” (priority 2009, dated 2017).
Numbered stars: 1 amine (or outer) side, 2 acyl side, 3 side chain; on linkers, the order of the positions; unused ones are H or OH. Square brackets hold non-standard residues; d marks the D form. Peptide text beside a SMILES is read from it. * marks the point of attachment. X3 = NCCN[C@@H]1C[C@@H](C(=O)[*:2])N([*:1])C1; Pro(4R-NH2) = N[C@H]1CN[C@H](C(=O)O)C1; Gly(cPent) = N[C@H](C(=O)O)C1CCCC1; X11 = O=C(C(CCN1CCCC1)N[*:1])[*:2]; X2 = O=C([C@H]1CCCN([*:1])C1)[*:2]; X1 = CCCCCCCCN1CCC[C@H](C(=O)*)C1; dDap(Me2) = CN(C)C[C@@H](N)C(=O)O; Hyp = O=C(O)[C@@H]1C[C@@H](O)CN1; NHcycloheptyl = C1CCCC(N*)CC1; NMeL = CN[C@@H](CC(C)C)C(=O)O; Octanoyl = CCCCCCCC(=O)*

Target: T1, NPR-B (Homo sapiens, UniProt P20594)
T1 construct: a functional assay using endogenously NPR-B expressing GTM-3 cells; endogenous in cells; host or cells: GTM-3 (human glaucoma trabecular meshwork cells)
T1 sequence (P20594 23-1047): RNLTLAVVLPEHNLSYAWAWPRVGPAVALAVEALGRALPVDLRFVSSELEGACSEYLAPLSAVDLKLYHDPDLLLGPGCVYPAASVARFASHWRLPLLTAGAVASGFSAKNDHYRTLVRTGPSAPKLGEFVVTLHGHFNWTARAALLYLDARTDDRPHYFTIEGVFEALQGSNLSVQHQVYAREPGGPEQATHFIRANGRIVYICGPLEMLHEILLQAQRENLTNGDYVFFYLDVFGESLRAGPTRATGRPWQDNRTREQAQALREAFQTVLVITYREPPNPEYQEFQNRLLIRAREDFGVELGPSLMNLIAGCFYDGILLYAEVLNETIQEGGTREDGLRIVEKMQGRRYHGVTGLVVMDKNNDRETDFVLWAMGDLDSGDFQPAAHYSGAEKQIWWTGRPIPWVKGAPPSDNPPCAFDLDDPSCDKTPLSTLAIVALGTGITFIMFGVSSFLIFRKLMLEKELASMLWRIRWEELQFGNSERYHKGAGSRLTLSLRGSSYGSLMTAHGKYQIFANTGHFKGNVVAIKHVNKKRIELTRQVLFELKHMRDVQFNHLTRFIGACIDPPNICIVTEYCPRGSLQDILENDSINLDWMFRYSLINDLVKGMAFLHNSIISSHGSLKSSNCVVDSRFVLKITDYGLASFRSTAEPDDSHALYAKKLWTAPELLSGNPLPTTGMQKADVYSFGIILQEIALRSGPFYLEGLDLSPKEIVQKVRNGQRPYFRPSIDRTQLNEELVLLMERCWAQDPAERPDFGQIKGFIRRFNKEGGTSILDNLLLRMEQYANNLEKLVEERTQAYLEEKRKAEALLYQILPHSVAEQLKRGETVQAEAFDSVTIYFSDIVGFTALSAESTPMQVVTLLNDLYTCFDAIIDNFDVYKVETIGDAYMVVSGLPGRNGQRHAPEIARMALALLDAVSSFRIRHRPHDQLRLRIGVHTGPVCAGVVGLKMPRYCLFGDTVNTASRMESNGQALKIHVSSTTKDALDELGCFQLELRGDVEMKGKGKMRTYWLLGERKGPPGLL
Experiment: NPR-B induced production of cyclic GMP in human glaucoma trabecular meshwork cells (GTM-3)
Format: cell-based
Details: group by EC50 and Emax (CNP = 100%); Table 4; read-out: Activity (group), NPR-B activation assayed with GTM-3 cells

EC50, < 1000 nM:
CCCCCCCC(=O)N1CCC[C@H](C(=O)N[C@@H](Cc2ccccc2)C(=O)N[C@H](CC(C)C)C(=O)N[C@@H](CC(C)C)C(=O)N2C[C@H](NCCN)C[C@H]2C(=O)N(C)[C@@H](CC(C)C)C(=O)N[C@@H](CC(=O)O)C(=O)N[C@@H](CCCNC(=N)N)C(=O)NC2CCCCCC2)C1 [JAL-1681, Occ-Sni-Phe-leu-Leu-Tap(Ae)-Nml-Asp-Arg-Che] (Octanoyl-[X2]F[dL]L[X3][NMeL]DR-NHcycloheptyl)
CCCCCCCC(=O)N1CCC[C@H](C(=O)N[C@@H](Cc2ccccc2)C(=O)N[C@H](CN(C)C)C(=O)N[C@@H](CC(C)C)C(=O)N2C[C@H](O)C[C@H]2C(=O)N(C)[C@@H](CC(C)C)C(=O)N[C@@H](CC(=O)O)C(=O)N2CCC[C@H]2C(=O)NC2CCCCCC2)C1 [JAL-1604, Occ-Sni-Phe-dap(Me2)-Leu-Hyp-Nml-Asp-Pro-Che] (Octanoyl-[X2]F[dDap(Me2)]L[Hyp][NMeL]DP-NHcycloheptyl)
CCCCCCCC(=O)N[C@H]1CCN([C@@H](Cc2ccccc2)C(=O)N[C@H](CC(C)C)C(=O)N[C@@H](CC(C)C)C(=O)N2C[C@H](O)C[C@H]2C(=O)N(C)[C@@H](CC(C)C)C(=O)N[C@@H](CC(=O)O)C(=O)N[C@@H](CCCNC(=N)N)C(=O)N[C@H](C(N)=O)[C@@H](C)CC)C1=O [JAL-1671, Occ-(AFL)-leu-Leu-Hyp-Nml-Asp-Arg-Ile-NH2]
CCCCCCCCN1CCC[C@H](C(=O)N[C@@H](Cc2ccccc2)C(=O)N[C@H](CN(C)C)C(=O)N[C@@H](CC(C)C)C(=O)N2C[C@H](N)C[C@H]2C(=O)N(C)[C@@H](CC(C)C)C(=O)N[C@H](C(=O)N[C@@H](CCCNC(=N)N)C(=O)N[C@H](C(N)=O)[C@@H](C)CC)C(C)C)C1 [JAL-1405, Oct-Sni-Phe-dap(Me2)-Leu-Tap-Nml-Val-Arg-Ile-NH2] (X1-F[dDap(Me2)]L[Pro(4R-NH2)][NMeL]VRI-NH2)
CCCCCCCC(=O)N1CCC[C@H](C(=O)N[C@@H](Cc2ccccc2)C(=O)N[C@H](CC(C)C)C(=O)N[C@@H](CC(C)C)C(=O)N2C[C@H](O)C[C@H]2C(=O)N[C@H](C(=O)N[C@@H](CC(=O)O)C(=O)N[C@@H](CCCNC(=N)N)C(=O)N[C@H](C(N)=O)[C@@H](C)CC)C2CCCC2)C1 [JAL-1626, Occ-Sni-Phe-leu-Leu-Hyp-Cpg-Asp-Arg-Ile-NH2] (Octanoyl-[X2]F[dL]L[Hyp][Gly(cPent)]DRI-NH2)
CCCCCCCC(=O)N[C@H](C)C(=O)N[C@@H](Cc1ccccc1)C(=O)N[C@H](CCCN)C(=O)N[C@@H](CC(C)C)C(=O)N1C[C@H](O)C[C@H]1C(=O)N(C)[C@@H](CC(C)C)C(=O)N[C@@H](CC(=O)O)C(=O)N[C@@H](CCCNC(=N)N)C(=O)N[C@H](C(N)=O)[C@@H](C)CC [JAL-1061, Occ-ala-Phe-orn-Leu-Hyp-Nml-Asp-Arg-Ile-NH2] (HELM PEPTIDE1{[CCCCCCCC(=O)[*:2]].[dA].F.[NCCC[C@@H](N[*:1])C(=O)[*:2]].L.[Hyp].[meL].D.R.I.[am]}$$$$V2.0)
CCCCCCCC(=O)N[C@H](C)C(=O)N[C@@H](Cc1ccccc1)C(=O)N[C@H](CCCNC(=N)N)C(=O)N[C@@H](CC(C)C)C(=O)N1C[C@H](N)C[C@H]1C(=O)N[C@@H](CC(C)C)C(=O)N[C@@H](CC(=O)O)C(=O)N[C@@H](CCCNC(=N)N)C(=O)N[C@H](C(N)=O)[C@@H](C)CC [JAL-1250, Occ-ala-Phe-arg-Leu-Tap-Leu-Asp-Arg-Ile-NH2] (HELM PEPTIDE1{[CCCCCCCC(=O)[*:2]].[dA].F.[dR].L.[N[C@@H]1C[C@@H](C(=O)[*:2])N([*:1])C1].L.D.R.I.[am]}$$$$V2.0)
CCCCCCCC(=O)N1CCC[C@H](C(=O)N[C@@H](Cc2ccccc2)C(=O)NC(CCN2CCCC2)C(=O)N[C@@H](CC(C)C)C(=O)N2C[C@H](O)C[C@H]2C(=O)N(C)[C@@H](CC(C)C)C(=O)N[C@@H](CC(=O)O)C(=O)N[C@@H](CCCNC(=N)N)C(=O)N[C@H](C(N)=O)[C@@H](C)CC)C1 (stereo partly drawn) [JAL-1877, Occ-Sni-Phe-(AR-385-12)-Leu-Hyp-Nml-Asp-Arg-Ile-NH2] (Octanoyl-[X2]F[X11]L[Hyp][NMeL]DRI-NH2)
CCCCCCCC(=O)N[C@H](C)C(=O)N[C@@H](Cc1ccccc1)C(=O)NC1(C(=O)N[C@@H](CC(C)C)C(=O)N2C[C@H](O)C[C@H]2C(=O)N(C)[C@@H](CC(C)C)C(=O)N[C@@H](CC(=O)O)C(=O)N[C@@H](CCCNC(=N)N)C(=O)N[C@H](C(N)=O)[C@@H](C)CC)CCNCC1 [JAL-1338, Occ-ala-Phe-Apc-Leu-Hyp-Nml-Asp-Arg-Ile-NH2] (HELM PEPTIDE1{[CCCCCCCC(=O)[*:2]].[dA].F.[O=C(C1(N[*:1])CCNCC1)[*:2]].L.[Hyp].[meL].D.R.I.[am]}$$$$V2.0)
CCCCCCCC(=O)N1CCCC[C@@H]1C(=O)N[C@@H](Cc1ccccc1)C(=O)N[C@H](CCCNC(=N)N)C(=O)N[C@@H](CC(C)C)C(=O)N1C[C@H](O)C[C@H]1C(=O)N(C)[C@@H](CC(C)C)C(=O)N[C@@H](CC(=O)O)C(=O)N[C@@H](CCCNC(=N)N)C(=O)N[C@H](C(N)=O)[C@@H](C)CC [JAL-1087, Occ-pip-Phe-arg-Leu-Hyp-Nml-Asp-Arg-Ile-NH2] (HELM PEPTIDE1{[CCCCCCCC(=O)[*:2]].[O=C([C@H]1CCCCN1[*:1])[*:2]].F.[dR].L.[Hyp].[meL].D.R.I.[am]}$$$$V2.0)
CCCCCCCC(=O)N1CCC[C@H](C(=O)N[C@@H](Cc2ccccc2)C(=O)N[C@H](CC(C)C)C(=O)N[C@@H](CC(C)C)C(=O)N2C[C@H](O)C[C@H]2C(=O)N[C@H](C(=O)N[C@@H](CC(=O)O)C(=O)N[C@@H](CCCNC(=N)N)C(=O)N[C@H](C(N)=O)[C@@H](C)CC)[C@@H](C)CC)C1 [JAL-1625, Occ-Sni-Phe-leu-Leu-Hyp-Ile-Asp-Arg-Ile-NH2] (HELM PEPTIDE1{[CCCCCCCC(=O)[*:2]].[O=C([C@H]1CCCN([*:1])C1)[*:2]].F.[dL].L.[Hyp].I.D.R.I.[am]}$$$$V2.0)
CCCCCCCC(=O)N1CCC[C@H](C(=O)N[C@@H](Cc2ccccc2)C(=O)N[C@H](CC(C)C)C(=O)N[C@@H](CC(C)C)C(=O)N2C[C@H](O)C[C@H]2C(=O)N(C)[C@@H](CC(C)C)C(=O)N[C@H](C(=O)N[C@@H](CCCNC(=N)N)C(=O)N[C@H](C(N)=O)[C@@H](C)CC)[C@@H](C)O)C1 [JAL-1932, Occ-Sni-Phe-leu-Leu-Hyp-Nml-Thr-Arg-Ile-NH2] (HELM PEPTIDE1{[CCCCCCCC(=O)[*:2]].[O=C([C@H]1CCCN([*:1])C1)[*:2]].F.[dL].L.[Hyp].[meL].T.R.I.[am]}$$$$V2.0)
CCCCCCCC(=O)N1CCC[C@H](C(=O)N[C@@H](Cc2ccccc2)C(=O)N[C@H](CN(C)C)C(=O)N[C@@H](CC(C)C)C(=O)N2C[C@H](N)C[C@H]2C(=O)N(C)[C@@H](CC(C)C)C(=O)N[C@@H](CC(=O)O)C(=O)N2CCC[C@H]2C(=O)NC2CCCCCC2)C1 [JAL-1603, Occ-Sni-Phe-dap(Me2)-Leu-Tap-Nml-Asp-Pro-Che] (Octanoyl-[X2]F[dDap(Me2)]L[Pro(4R-NH2)][NMeL]DP-NHcycloheptyl)
